Laboratory results reported in patent publication US10946099B2, “Compositions for photodynamic therapy and fluorescence diagnosis of cancers and other diseases” (VISION GLOBAL HOLDINGS LIMITED, priority 2017, dated 2021).

Key:
HCT116 cells = experiment: Intracellular ROS generation (cellrox reagent); type: cell-based
Method: To examine intracellular ROS generation by PpIX and PpIX-TF conjugate (TF01), HCT116 cells were seeded in 24-well, glass-bottomed plate and incubated with cellrox reagent (Thermo Fisher Scientific). After 30 min, the cells were washed three times by PBS and treated with PpIX or PpIX-TF conjugate (TF01). After 24 h of incubation, the cells were washed twice with PBS and then exposed to a 10 mW/cm^2 using a 635-nm laser source for 30 min. After irradiation, the fluorescence intensity of cells was measured by a microplate reader with excitation/emission at 485/520 nm. The values are expressed as fluorescence intensity ratio to control.

[1] = Fluorescence emission spectroscopy; type: physicochemical
Source text: A BMG fluostar spectrofluorophotometer was used to record fluorescent emissions of PpIX or PpIX-TF conjugate (referred to herein as TF01) suspended in aqueous buffer. A UV-vis spectrophotometer was used to record the absorbance spectra of PpIX and TF.

[2] = tested on: colorectal carcinoma cell line HCT116; experiment: Cell uptake and imaging (fluorescence microscopy); type: cell-based
Method: Cancer cells were used to detect and compare cellular uptake of PpIX and PpIX-TF conjugate (referred to herein as TF01) in vitro. The cells were cultured in medium supplemented with 10% fetal bovine serum at 37° C. and 5% CO2. After incubating cells with PpIX-TF conjugate (TF01), images were viewed by confocal microscopy.
FIG. 9 depicts the fluorescence microscopic analysis of cellular uptake of recombinant TF in a colorectal carcinoma cell line HCT116.

[3] = tested on: human hepatoma SK-HEP 1 xenograft; experiment: In vivo PDT efficacy; conditions: 400 mg/kg intravenously, followed by laser application (230 mW/cm^2, 260 J/cm^2, 635-nm); nude mice
Method: To test the in vivo PDT efficacy of PpIX-TF conjugate, nude mice bearing human hepatoma SK-HEP 1 xenograft were intravenously treated with PBS, 200 mg/kg or 400 mg/kg PpIX-TF conjugate (TF01) respectively (n=3-4 per group), followed by the laser application (at a light intensity 230 mW/cm^2, 260 J/cm^2, using a 635-nm laser source). Visible tumors were measured using two orthogonal measurements L and W (perpendicular to L), the volumes were calculated using the formula V=LW2/2 and recorded.

HCT 116 = experiment: Cell phototoxicity assay (MTT); type: cell-based; conditions: concentration greater than about 25 μg/ml
Method: (§1) To determine cell viability under dark conditions, cells (1×10^4 cells/well) were seeded onto 96-well plates and incubated for 24 h at 37° C. After cell stabilization, the culture medium was replaced with 100 μl of culture medium containing free PpIX or PpIX-TF conjugate (referred to herein as TF01), followed by incubation for 24 h. The cells were then washed twice with serum-free medium and cell viability was evaluated by MTT assay after 48 h. To determine the in vitro phototoxicity after laser irradiation, cells (1×10^4 cells/well) were seeded onto 96-well plates and incubated for 24 h at 37° C. The cells were then treated with free PpIX or a PpIX-TF conjugate (TF01). After 24 h incubation, the cells were washed twice with serum-free medium and irradiated at a light intensity of 150 mW/cm^2 using 450 nm or 627 nm LED light source for 30 min or 10 mW/cm^2 using a 635-nm laser source for 5-30 min (3 J/cm^2 to 18 J/cm^2). The cell viability of irradiated cells was evaluated by MTT assay after 24 h of incubation.
(§2) For each cancer cell line, measurements were performed in dark and in the presence of 450 nm blue laser light or 627 nm red light.

HepG2 = experiment: Cell phototoxicity assay (MTT); type: cell-based; conditions: concentration greater than about 25 μg/ml
Method: as §1, §2

[4] = Cell phototoxicity assay under different dosages of 635-nm laser excitation (FIG. 16); type: cell-based; conditions: when laser dosage were increased (635-nm laser, 3 J/cm^2 to 18 J/cm^2)
Method: as §1
When laser dosage were increased, the corresponding IC50 values of PpIX-TF conjugate (TF01) were decreased.

[5] = Solubility and dispersibility in aqueous buffer; type: physicochemical; conditions: compared to PpIX in aqueous Tris-HCl buffer, 20 mM, pH 8.5
Method: Improvement in solubility and dispersibility of the PpIX-TF conjugate was compared to PpIX in aqueous Tris-HCl buffer, 20 mM, pH 8.5 (FIG. 6).

[6] = tested on: liver cancer cell line SK-Hep-1; experiment: Cellular localization with MitoTracker, LysoTracker and ER-Tracker; type: cell-based
Method: The Mitotracker, lysotracker and ER-tracker (Thermo Fisher Scientific) were used to label mitochondria, lysosome and endoplasmic reticulum (ER) respectively. Two measures of correlation, the Pearson correlation coefficient (PCC) and the Mander's overlap coefficient (MOC) were calculated as depicted in the table below.

[7] = Singlet oxygen / ROS generation by RNO bleaching; type: physicochemical; conditions: relative to positive control methylene blue; RNO bleaching near 440 nm
Method: To determine singlet oxygen generation, singlet oxygen detection method was applied to a 3 ml aqueous solution containing the singlet oxygen generator, 50 µM of RNO and 8 mM of imidazole. The detection for absorption intensity of RNO near 440 nm was monitored to reflect the production of ROS by a UV-vis spectrophotometer after time intervals of laser exposure.

SK-Hep-1 cell = experiment: Soft agar colony-formation assay; type: cell-based; conditions: 10 ug/ml, 3 J/cm^2, 635-nm laser source
Method: To estimate the anchorage-independent growth ability of cells treated by PpIX-TF conjugate (referred to herein as TF01), 3×10^4 cells of SK-Hep-1 cell were seeded in 35 mm dish and incubated for 24 h at 37° C. The cells were then treated with a PpIX-TF conjugate (TF01) or medium control. After 24 h incubation, the cells were washed twice with serum-free medium and irradiated at a light intensity of 10 mW/cm^2 using a 635-nm laser source for 5 min. Then, 5000 cells were suspended in 0.3% noble agar and cells were allowed to grow for another 2 weeks. Colonies were stained with 0.02% Giemsa Stain Solution, and documented by scanning.

**Q.** Which “intracellular ROS generation” value (HCT116 cells; 100 uM, positive control, HCT116) does the source give for `OO` [H2O2, reference compound] here?
**A.** Its value is “increase”.

**Q.** With “Batch 1: exemplary batch of PpIX-TF conjugate (TF01), molar ratio of PpIX to TF protein 0.690” as the compound, how does the emission properties ([1]; 5 mg/ml (approximately 53 μM PpIX) in Tris-HCl buffer 20 mM, pH 8.5, versus control 60 μM PpIX with 5% DMSO) read?
**A.** Its emission properties is “greater”.

**Q.** What does the source list for “TF01: conjugate of PpIX and recombinant TF (globin 2αβ2 tetramer); PpIX non-covalently associated with the protein”?
**A.** intracellular ROS generation (HCT116 cells; 50 um/ml (batch 2), approximately 0.71 uM PpIX, 635-nm laser 10 mW/cm^2 30 min, versus control PpIX 0.75 uM): greatly enhance; cellular uptake / distribution of fluorescent signals [2]: widely distributed in the cytoplasm; tumor volume [3]: tumor regression; survival rates of the cells (HCT 116; irradiation 450 nm blue light): markedly decrease; survival rates of the cells (HCT 116; irradiation 627 nm red light): markedly decrease; survival rates of the cells (HepG2; irradiation 450 nm blue light): markedly decrease; survival rates of the cells (HepG2; irradiation 627 nm red light): markedly decrease; pH dependence of the emission intensity ([1]; 50 mM Tris-HCl or potassium phosphate buffer, λmax=625 nm): wide pH range; IC50 values under different dosages of 635-nm laser excitation [4]: decreased; solubility and dispersibility [5]: Improvement; Mander's overlap coefficient (MOC) ([6]; Endoplasmic reticulum): 0.6908; Pearson correlation coefficient (PCC) ([6]; Endoplasmic reticulum): 0.6076; Mander's overlap coefficient (MOC) ([6]; Lysosome): 0.4866; Pearson correlation coefficient (PCC) ([6]; Lysosome): 0.4974; Mander's overlap coefficient (MOC) ([6]; Mitochondria): 0.4684; Pearson correlation coefficient (PCC) ([6]; Mitochondria): 0.4922; quantum yield of ROS [7]: almost double that of methylene blue; cancer cell soft agar colony formation (SK-Hep-1 cell): significantly inhibit
